Results as given in patent US20060276464A1, “Diarylsulfone sulfonamides and use thereof” (Wyeth, priority 2005, published 2006).
pEC50, pIC50: −log10 of the molar value. Several values for one entry are separate records, joined by “and”; a condition that tells them apart may be missing. Equal entries are not always repeated. Where two headings read alike, the source gives them in different places.

Key:
[1] = biological target: T1, SFRP-1 (Homo sapiens, UniProt Q8N474); assay: Fluorescence polarization binding assay (competitive displacement of a probe compound from SFRP-1); conditions: fluorescence anisotropy, 45 nM SFRP-1, 20 nM probe;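 note: test compound competes with a fluorescent probe held by SFRP-1, seen as a drop in probe anisotropy after incubation in darkness, with anisotropy as function of rising compound dose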
T1 sequence (Q8N474 32-314): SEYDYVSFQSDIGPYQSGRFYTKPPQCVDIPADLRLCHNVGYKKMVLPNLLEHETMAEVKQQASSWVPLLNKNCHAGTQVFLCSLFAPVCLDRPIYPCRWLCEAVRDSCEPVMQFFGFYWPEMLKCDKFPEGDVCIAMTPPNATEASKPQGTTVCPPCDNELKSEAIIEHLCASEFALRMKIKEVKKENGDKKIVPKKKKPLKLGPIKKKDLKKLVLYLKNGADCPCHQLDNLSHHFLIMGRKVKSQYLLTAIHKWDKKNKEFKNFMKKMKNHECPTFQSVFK

[2] = biological target: T1, SFRP-1; assay: Cell-based assay for in vitro measurement of SFRP-1/SARP2 antagonist activity (U2OS cells co-transfected with 16x TCF-tk-Luciferase reporter, Wnt and hSFRP-1); conditions: for fold induction at 10 µM / fold induction at 15 µM: U2OS; for fold induction at 10 µM: read-out: Fold Induction with SFRP-1, U2OS cells, single dose 10 μM, luciferase reporter, fold induction over SFRP-1 control;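 for all read-outs here: U2OS cells co-transfected with a TCF-tk luciferase reporter, a Wnt vector, hSFRP-1 or empty vector and CMV-βgal, luciferase luminescence read in cell lysates alongside βgal activity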
[3] = read-out: Fold Induction with SFRP-1, Conc 15 μM, single dose, luciferase reporter, fold induction over SFRP-1 control, cells with SFRP-1
[4] = read-out: Fold Induction without SFRP-1, Conc 15 μM, single dose, luciferase reporter, cells without SFRP-1 (specificity control)
[5] = read-out: Fold Induction with SFRP-1, Conc 15 μM, with SFRP-1, fold induction over SFRP-1 control, single dose
[6] = read-out: Fold Induction without SFRP-1, Conc 15 μM, without SFRP-1, single dose

Row | pIC50 [1] | pEC50 [2] | fold induction at 10 µM [2] | fold induction at 15 µM [2, 3] | fold induction at 15 µM [2, 4] | fold induction at 15 µM [2, 5] | fold induction at 15 µM [2, 6] | SMILES
1 | 6.52 | 6.34 | 5 |  |  |  |  | COc1cccc(S(=O)(=O)c2ccc(C(F)(F)F)c(S(=O)(=O)NC3CCN(C(=O)c4ccc(C(C)(C)C)cc4)CC3)c2)c1 [Example 746, N-[1-(4-tert-butylbenzoyl)piperidin-4-yl]-5-[(3-methoxyphenyl)sulfonyl]-2-(trifluoromethyl)benzenesulfonamide]
2 | 6.92 | 6.51 | 4.5 |  |  |  |  | O=S(=O)(NCCc1cccnc1)c1cc(S(=O)(=O)c2ccc(O)cc2)ccc1C(F)(F)F [Example 814, 5-[(4-hydroxyphenyl)sulfonyl]-N-(2-pyridin-3-ylethyl)-2-(trifluoromethyl)benzenesulfonamide]
3 | 5.82 | 5.64 |  |  |  |  |  | NCCCNS(=O)(=O)c1cc(S(=O)(=O)c2ccccc2)ccc1C(F)(F)F [Example 993, N-(3-aminopropyl)-5-(phenylsulfonyl)-2-(trifluoromethyl)benzenesulfonamide]
4 | 6.59 | 5.70 | 4.7 |  |  |  |  | CN(C)c1ccc(S(=O)(=O)c2ccc(C(F)(F)F)c(S(=O)(=O)NC3CCNCC3)c2)cc1 [Example 843, 5-{[4-(dimethylamino)phenyl]sulfonyl}-N-piperidin-4-yl-2-(trifluoromethyl)benzenesulfonamide]
5 | 7.40 | 6.48 |  |  |  |  |  | O=C([C@@H]1CCCN1C(=O)c1ccc(Cl)nc1)N1CCC(NS(=O)(=O)c2cc(S(=O)(=O)c3ccccc3)ccc2C(F)(F)F)CC1 [Example 1079, N-(1-{1-[(6-chloropyridin-3-yl)carbonyl]-L-prolyl}piperidin-4-yl)-5-(phenylsulfonyl)-2-(trifluoromethyl)benzenesulfonamide]
6 | 6.74 | 6.23 | 3.1 |  |  |  |  | O=C(O)[C@H]1CC[C@H](CNS(=O)(=O)c2cc(S(=O)(=O)c3ccccc3)ccc2C(F)(F)F)CC1 [Example 969, trans-4-[({[5-(phenylsulfonyl)-2-(trifluoromethyl)phenyl]sulfonyl}amino)methyl]cyclohexanecarboxylic acid]
7 | 6.66 | 5.80 | 3.3 |  |  |  |  | CN(CCNS(=O)(=O)c1cc(S(=O)(=O)c2ccccc2)ccc1C(F)(F)F)C(=O)c1ccccc1 [Example 819, N-Methyl-N-[2-({[5-(phenylsulfonyl)-2-(trifluoromethyl)phenyl]sulfonyl}amino)ethyl]benzamide]
8 | 6.30 |  | 2.9 |  |  |  |  | O=C(c1ccc(Cl)c(Cl)c1)N1CCC(NS(=O)(=O)c2cc(S(=O)(=O)c3ccccc3)ccc2C(F)(F)F)CC1 [Example 712, N-[1-(3,4-dichlorobenzoyl)piperidin-4-yl]-5-(phenylsulfonyl)-2-(trifluoromethyl)benzenesulfonamide]
9 | 7.22 | 6.33 |  |  |  |  |  | O=S(=O)(NC1Cc2ccc(O)cc2C1)c1cc(S(=O)(=O)c2ccccc2)ccc1C(F)(F)F (stereo not shown) [Example 1004, N-(5-hydroxy-2,3-dihydro-1H-inden-2-yl)-5-(phenylsulfonyl)-2-(trifluoromethyl)benzenesulfonamide]

Further lines, the compound ahead of its results:

Row | SMILES | pIC50 [1] | pEC50 [2] | fold induction at 10 µM [2] | fold induction at 15 µM [2, 3] | fold induction at 15 µM [2, 4] | fold induction at 15 µM [2, 5] | fold induction at 15 µM [2, 6]
10 | CC(C)c1ccc(S(=O)(=O)c2ccccc2)cc1S(=O)(=O)NC1CC(C)(C)NC(C)(C)C1 [Example 935, 2-isopropyl-5-(phenylsulfonyl)-N-(2,2,6,6-tetramethylpiperidin-4-yl)benzenesulfonamide] | 5.15 | 5.60 | 2.5 |  |  |  | 
11 | CC(C)(C)OC(=O)N1CSC[C@H]1C(=O)N1CCC(NS(=O)(=O)c2cc(S(=O)(=O)c3ccccc3)ccc2C(F)(F)F)CC1 [Example 1055, tert-butyl (4R)-4-{[4-({[5-(phenylsulfonyl)-2-(trifluoromethyl)phenyl]sulfonyl}amino)piperidin-1-yl]carbonyl}-1,3-thiazolidine-3-carboxylate] | 7.30 | 7.02 |  |  |  |  | 
12 | CC(C)c1ccc(S(=O)(=O)c2ccc(N(C)CCC#N)cc2)cc1S(=O)(=O)NC1CCOCC1 [Example 580, 5-({4-[(2-cyanoethyl)(methyl)amino]phenyl}sulfonyl)-2-isopropyl-N-(tetrahydro-2H-pyran-4-yl)benzenesulfonamide] | 6.15 |  |  | 2.8 | 1.3 |  | 
13 | Cc1ccc(S(=O)(=O)c2ccc(N[C@H](C)C3CCCCC3)cc2)cc1S(=O)(=O)NCCCn1ccnc1 [Example 372, 5-[(4-{[(1R)-1-cyclohexylethyl]amino}phenyl)sulfonyl]-N-[3-(1H-imidazol-1-yl)propyl]-2-methylbenzenesulfonamide] | 5.70 and 5.68 |  |  |  |  | 2.2 | 0.9
14 | CNc1ccc(S(=O)(=O)c2ccc(C(C)C)c(S(=O)(=O)NC3CCN(C(=O)OC(C)(C)C)CC3)c2)cc1 [Example 528, tert-butyl 4-{[(2-isopropyl-5-{[4-(methylamino)phenyl]sulfonyl}phenyl)sulfonyl]amino}piperidine-1-carboxylate] | 6.52 |  |  | 2.5 | 1.1 |  | 
15 | CCCc1ccc(S(=O)(=O)c2ccccc2)cc1S(=O)(=O)NCCc1cccnc1 [Example 876, 5-(Phenylsulfonyl)-2-propyl-N-(2-pyridin-3-ylethyl)benzenesulfonamide] | 6.10 | 5.87 | 3 |  |  |  | 
16 | CC(C)c1ccc(S(=O)(=O)c2ccc(F)cc2)cc1S(=O)(=O)NC1CCN(S(=O)(=O)c2cccc3c(N(C)C)cccc23)CC1 [Example 518, N-(1-{[5-(dimethylamino)-1-naphthyl]sulfonyl}piperidin-4-yl)-5-[(4-fluorophenyl)sulfonyl]-2-isopropylbenzenesulfonamide] | 6.30 |  |  | 3 | 1.2 |  | 
17 | CC(C)c1ccc(S(=O)(=O)c2ccc(N(C)CCC#N)cc2)cc1S(=O)(=O)NCC1CCOCC1 [Example 581, 5-({4-[(2-cyanoethyl)(methyl)amino]phenyl}sulfonyl)-2-isopropyl-N-(tetrahydro-2H-pyran-4-ylmethyl)benzenesulfonamide] | 6.00 |  |  | 2.2 | 1.3 |  | 
18 | CCC(O)CNc1ccc(S(=O)(=O)c2ccc(C)c(S(=O)(=O)NCCCn3ccnc3)c2)cc1 (stereo not shown) [Example 373, 5-({4-[(2-hydroxybutyl)amino]phenyl}sulfonyl)-N-[3-(1H-imidazol-1-yl)propyl]-2-methylbenzenesulfonamide] | 5.96 |  |  |  |  | 2.8 | 1
19 | CC(C)c1ccc(S(=O)(=O)c2ccc(F)cc2)cc1S(=O)(=O)NC1CCN(Cc2ccccc2)CC1 [Example 525, N-(1-benzylpiperidin-4-yl)-5-[(4-fluorophenyl)sulfonyl]-2-isopropylbenzenesulfonamide] | 6.00 |  |  | 2.1 | 1.1 |  | 
20 | CC(C)c1ccc(S(=O)(=O)c2ccc(F)cc2)cc1S(=O)(=O)NC1CCN(C(=S)NCCN2CCOCC2)CC1 [Example 698, 4-[({5-[(4-fluorophenyl)sulfonyl]-2-isopropylphenyl}sulfonyl)amino]-N-(2-morpholin-4-ylethyl)piperidine-1-carbothioamide] | 6.15 | 6.22 | 3 |  |  |  | 
